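48-hour exposure; five concentrations; linearly interpolated endpoints. TGI denotes the concentration required for complete inhibition of growth.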
Tests used:
Assay in all cases: NCI-60 cell line screen, 48 h
[1] = system: UO-31 renal
[2] = system: SK-OV-3 ovarian
[3] = system: MALME-3M melanoma
[4] = system: MDA-MB-231 breast
[5] = system: UACC-62 melanoma
[6] = system: EKVX NSCLC
[7] = system: SF-268 CNS
[8] = system: HOP-62 NSCLC
[9] = system: A498 renal
[10] = system: LOX IMVI melanoma
[11] = system: RPMI-8226 leukemia
[12] = system: HL-60(TB) leukemia
[13] = system: NCI-H226 lung
[14] = system: OVCAR-4 ovarian
[15] = system: U251 CNS
[16] = system: MDA-N
[17] = system: TK-10 renal
[18] = system: IGROV1 ovarian
[19] = system: DU-145 prostate
[20] = system: M14 melanoma
[21] = system: HS 578T breast
[22] = system: HT29 colon
[23] = system: NCI/ADR-RES ovarian
[24] = system: NCI-H23 lung
[25] = system: SW-620 colon
[26] = system: ACHN renal
[27] = system: 786-0 renal
[28] = system: HCT-15 colon
[29] = system: MCF7 breast
[30] = system: T-47D breast
[31] = system: OVCAR-8 ovarian
[32] = system: HCC-2998 colon
[33] = system: NCI-H460 lung
[34] = system: SN12C renal
[35] = system: PC-3 prostate
[36] = system: SF-295 CNS
[37] = system: KM12 colon
[38] = system: NCI-H522 lung
[39] = system: HCT-116 colon
[40] = system: COLO 205 colon
[41] = system: UACC-257 melanoma
[42] = system: SK-MEL-5 melanoma
[43] = system: K-562 leukemia
[44] = system: SR leukemia
[45] = system: BT-549 breast
[46] = system: HOP-92 NSCLC
[47] = system: RXF 393 renal
[48] = system: SK-MEL-28 melanoma
[49] = system: SK-MEL-2 melanoma
[50] = system: MDA-MB-435
[51] = system: A549 NSCLC
[52] = system: OVCAR-5 ovarian
[53] = system: CAKI-1 renal
[54] = system: SNB-19 CNS
[55] = system: SNB-75 CNS
[56] = system: SF-539 CNS
[57] = system: OVCAR-3 ovarian

## CCOC(=O)C(C(N)=O)c1nc2cc([N+](=O)[O-])ccc2nc1/C=C(\O)c1ccccc1 (configuration not stated)
[1]
  TGI: 36.6 µM
[2]
  TGI: 29 µM
[3]
  TGI: 36.7 µM
[4]
  TGI: 27 µM
[5]
  TGI: 34.9 µM
[6]
  TGI: 76.5 µM
[7]
  TGI: 32.1 µM
[8]
  TGI: 22.9 µM
[9]
  TGI: 33.2 µM
[10]
  TGI: 28.7 µM
[11]
  TGI: 27.1 µM
[12]
  TGI: 26 µM
[13]
  TGI: > 100 µM
[14]
  TGI: 34.7 µM
[15]
  TGI: 23.4 µM
[16]
  TGI: 40.4 µM
[17]
  TGI: 22.9 µM
[18]
  TGI: 24.8 µM
[19]
  TGI: 31 µM
[20]
  TGI: 34.3 µM
[21]
  TGI: 51.2 µM
[22]
  TGI: 45.3 µM
[23]
  TGI: 34.8 µM
[24]
  TGI: 23.7 µM
[25]
  TGI: 33.9 µM
[26]
  TGI: 30.7 µM
[27]
  TGI: 25.5 µM
[28]
  TGI: 28.4 µM
[29]
  TGI: 24.8 µM
[30]
  TGI: 71.8 µM
[31]
  TGI: 30 µM
[32]
  TGI: 21.7 µM
[33]
  TGI: 26.1 µM
[34]
  TGI: 64.4 µM
[35]
  TGI: 30.2 µM
[36]
  TGI: 42.5 µM
[37]
  TGI: 26.5 µM
[38]
  TGI: 29.3 µM
[39]
  TGI: 32.7 µM
[40]
  TGI: 36.5 µM
[41]
  TGI: 40.4 µM
[42]
  TGI: 30.4 µM
[43]
  TGI: 13.9 µM
[44]
  TGI: 16.5 µM
[45]
  TGI: 49.9 µM
[46]
  TGI: 39.1 µM
[47]
  TGI: 39.3 µM
[48]
  TGI: 86.9 µM
[49]
  TGI: 30.4 µM
[50]
  TGI: 31.3 µM
[51]
  TGI: 32.8 µM
[52]
  TGI: 83.3 µM
[53]
  TGI: 52 µM
[54]
  TGI: 44.5 µM
[55]
  TGI: 43.1 µM
[56]
  TGI: 30.2 µM
[57]
  TGI: 22 µM
